# Measurements as given in US5986136A, “Photolabeling reagent” (President and Fellows of Harvard College, priority 1998, dated 1999).
# “Also recorded” adds a separate entry of the source.
# Experiments:
# SPR in P388D1 cells [1] = target: T1, SPR in P388D1 cells (Mus musculus, UniProt P30548); assay: Photoaffinity labeling of SPR in P388D1 cells; assay type: binding, murine; conditions: presence of excess unlabeled SP or CP-96,345
# T1 construct: a nontransfected murine macrophage/monocyte cell line; endogenous in cells; host or cells: P388D1 (murine macrophage/monocyte cell line)
# Description: P388D1 cells (5×10^6 cells/5 ml) were inoculated on FBS-pretreated dishes (60 mm) in DMEM with 10% FBS and grown overnight. The cultured cells (approximately 1×10^7) were incubated with protease inhibitors and 0.1% BSA for 30 min at room temperature (25° C.). The cells were then washed twice (5 ml) with ice-cold buffer (DMEM+20 mM HEPES, pH 6.7) and incubated with 5 ml of buffer on ice for at least 10 min, in the presence of protease inhibitors, and 0.1% BSA. […] The dishes were then frozen by placement on crushed dry ice. The frozen sample was irradiated under nitrogen for 2 h using a focused HBO 100-watt mercury short arc lamp through an optical filter to eliminate light below 310 nm. A second filter removed infrared wavelengths (>900 nm) to minimize sample heating during photolysis (Li et al., 1995a). Alternatively, the sample can be irradiated in a commerical photoreactor at 3500 Å.
# After photolysis, the sample was thawed and any remaining attached cells were scraped from the bottom of the plate. The sample was transferred to microfuge tubes and centrifuged at 16,000 g for 30 min. The pelleted cells were hypotonically lysed by resuspending in 0.3 ml of 5 mM Tris-HCl, pH 8.0, for 15 min at room temperature. Then the samples were homogenized and centrifuged at 500 g for 15 min to remove debris. […]
# [2] = target: anti-substance P antibody; assay: Radioimmunoassay: displacement of [^125 I]BHSP from anti-substance P antibody; assay type: binding; conditions: for IC50: antibody dilution 1/160,000, [^125 I]BHSP 3.3 pM, 4° C. overnight, mean±standard deviation of ≥3 experiments
# SPR in P388D1 cells [3] = target: T1, SPR in P388D1 cells; assay type: binding, murine
# Description: Percentage of tracer bound was determined by solubilization and counting after washing away excess unbound tracer. […] The data shown is the average of four experiments containing triplicate samples in each. IC50 is expressed as the mean±standard deviation of ≥4 experiments.
# Protease inhibitors (0.004% bacitracin, 0.0002% chymostatin, 0.0004% leupeptin) and 0.1% BSA was added to the confluent cells (approximately 1×10^6 cells/well in DMEM and 10% FBS) and incubated for 30 min at room temperature (25° C.). The cells were then washed twice (0.5 ml/well) with ice-cold buffer (DMEM+20 mM HEPES, pH 7.2) and incubated with 0.5 ml of buffer on ice for at least 10 min in the presence of protease inhibitors and 0.1% BSA. […] After incubation, the cells were washed twice with 0.5 ml/well phosphate-buffered saline (104 mM NaCl, 2.7 mM KCl, 10 mM Na2 HPO4, 1.8 mM KH2 PO4, pH 7.2), then solubilized by 0.5 ml lysis buffer (1% Nonidet P-40, 0.2% SDS, 150 mM NaCl, 50 mM Tris, pH 8.0) for 20 min and transferred for gamma counting. […] Curve fitting was performed as described above.
# [4] = Retention of radioiodine during photolysis (model benzophenone); assay type: physicochemical; conditions: receptor photolabeling conditions, twice the photolysis time
# T1 sequence (P30548 whole entry, one chain of several): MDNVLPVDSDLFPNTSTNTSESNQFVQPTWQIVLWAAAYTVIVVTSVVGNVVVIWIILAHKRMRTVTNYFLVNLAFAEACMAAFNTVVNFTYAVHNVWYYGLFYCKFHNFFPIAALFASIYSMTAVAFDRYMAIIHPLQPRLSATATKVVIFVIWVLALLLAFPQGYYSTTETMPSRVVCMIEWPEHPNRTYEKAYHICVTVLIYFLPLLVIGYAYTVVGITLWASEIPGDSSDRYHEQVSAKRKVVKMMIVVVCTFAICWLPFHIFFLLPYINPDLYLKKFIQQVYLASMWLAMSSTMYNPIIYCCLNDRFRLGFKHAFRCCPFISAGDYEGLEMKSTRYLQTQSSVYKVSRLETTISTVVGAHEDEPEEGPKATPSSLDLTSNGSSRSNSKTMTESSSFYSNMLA
smiles,measurement,setting,value
"COc1ccccc1CN[C@H]1C2CCN(CC2)[C@H]1C(c1ccccc1)c1ccccc1 [CP-96,345, (2S, 3S)-cis-2-(diphenylmethyl)-N-[(2-methoxyphenyl)-methyl]-1-aza-bicyclo[2.2.2]octan-3-amine]",inhibition of photolabeling by [^125 I]HBPA^8 -SP,SPR in P388D1 cells [1],completely inhibited
CSCC[C@H](NC(=O)[C@H](CC(C)C)NC(=O)CNC(=O)[C@@H](Cc1ccc(C(=O)c2ccc(O)cc2)cc1)NC(=O)[C@H](Cc1ccccc1)NC(=O)[C@H](CCC(N)=O)NC(=O)[C@H](CCC(N)=O)NC(=O)[C@@H]1CCCN1C(=O)[C@H](CCCCN)NC(=O)[C@@H]1CCCN1C(=O)[C@@H](N)CCCNC(=N)N)C(N)=O [D-HBPA^8 -SP],IC50,[2],390 ± 40 pM
same,IC50,"SPR in P388D1 cells [3]; tracer 25 pM [^125 I]BHSP, 2 h on ice, mean±standard deviation of ≥4 experiments, read-out: IC50 for displacement of [^125 I]BHSP",1500 ± 340 pM
"CSCC[C@H](NC(=O)[C@H](CC(C)C)NC(=O)CNC(=O)[C@H](Cc1ccc(C(=O)c2ccc(O)cc2)cc1)NC(=O)[C@H](Cc1ccccc1)NC(=O)[C@H](CCC(N)=O)NC(=O)[C@H](CCC(N)=O)NC(=O)[C@@H]1CCCN1C(=O)[C@H](CCCCN)NC(=O)[C@@H]1CCCN1C(=O)[C@@H](N)CCCNC(=N)N)C(N)=O [L-HBPA^8 -SP, ArgProLysProGlnGlnPhe(L-HBPA)GlyLeuMet-NH2]",IC50,[2],52 ± 8 pM
same,affinity for anti-SP antiserum (in words),[2]; compared with native SP or other diastereomer,binds to the antibody with a higher affinity
same,"activity with both a SP specific antibody and SPR, antibody part (in words)",[2]; first HPLC peak versus second,more active than the second
same,"activity with both a SP specific antibody and SPR, receptor part (in words)",SPR in P388D1 cells [3]; first HPLC peak versus second,more active than the second
same,affinity / specificity for SPR (in words),"SPR in P388D1 cells [3]; murine SP receptor, P388D1 cells",bind with high affinity and specificity to SPR; also recorded: a specific as well as a high affinity ligand for the receptor
"CSCC[C@H](NC(=O)[C@H](CC(C)C)NC(=O)CNC(=O)[C@H](Cc1ccccc1)NC(=O)[C@H](Cc1ccccc1)NC(=O)[C@H](CCC(N)=O)NC(=O)[C@H](CCC(N)=O)NC(=O)[C@@H]1CCCN1C(=O)[C@H](CCCCN)NC(=O)[C@@H]1CCCN1C(=O)[C@@H](N)CCCNC(=N)N)C(N)=O [SP, reference compound]",IC50,[2],71 ± 6 pM
O=C(c1ccccc1)c1ccc(O)c([125I])c1 [[^125 I]-3-iodo-4-hydroxybenzophenone],radioiodine remaining incorporated in the starting material after photolysis,[4],greater than 98%
